The text below walks through data of patent publication US20250145628A1, “PYRAZOLOPYRIMIDINES, COMPOSITIONS COMPRISING THEM AND USES THEREOF” (Novo Nordisk A/S, priority 2022, published 2025).

The target of test [1] is T1, human CB1 receptor (Homo sapiens, UniProt P21554).
T1 construct: expressed in transfected cells; host or cells: HEK293
The test is described as follows: bioSensAll GAPL-Gi2 BRET biosensor assay (antagonism of CP-55,940). Format: cell-based. The following applies: HEK293 cells transfected with hCB1 and GAPL-Gi2 biosensor, EC75 of CP-55,940 (0.1 nM), overnight incubation, read-out: CB1 wt Gi2 IC50. The gist of the method:
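HEK293 cells transiently co-transfected with hCB1 and GAPL-Gi2 BRET biosensor; ~48 h later, in HBSS, 12 compound doses ([…]) added 3–5 min before CP-55,940 at EC75 (0.1 nM). BRET ratio 515/400 nm with coelenterazine, standardized to uBRET; four-parameter logistic fit.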
Background: In BRET a luciferase serves as donor, and the signal depends on an acceptor being close.

In test [2] the target is T1, human CB1 receptor. The experiment in a line: bioSensAll β-arrestin plasma membrane translocation BRET biosensor (+GRK2) assay (antagonism of CP-55,940). Particulars: HEK293 cells transfected with hCB1 and β-arrestin PM translocation biosensor (+GRK2), EC75 of CP-55,940 (100 nM), overnight incubation, read-out: CB1 wt βarr2 IC50. Format: cell-based. The procedure, abridged: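 HEK293 cells co-transfected with hCB1 and β-arrestin plasma-membrane translocation BRET biosensor plus GRK2, tested ~48 h later in HBSS. Compounds (12 doses, 0–600 nM) added 3–5 min before CP-55,940 at EC75 of 100 nM. uBRET ratio (515/400 nm) fitted by four-parameter logistic regression.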

T1 sequence (P21554 whole entry): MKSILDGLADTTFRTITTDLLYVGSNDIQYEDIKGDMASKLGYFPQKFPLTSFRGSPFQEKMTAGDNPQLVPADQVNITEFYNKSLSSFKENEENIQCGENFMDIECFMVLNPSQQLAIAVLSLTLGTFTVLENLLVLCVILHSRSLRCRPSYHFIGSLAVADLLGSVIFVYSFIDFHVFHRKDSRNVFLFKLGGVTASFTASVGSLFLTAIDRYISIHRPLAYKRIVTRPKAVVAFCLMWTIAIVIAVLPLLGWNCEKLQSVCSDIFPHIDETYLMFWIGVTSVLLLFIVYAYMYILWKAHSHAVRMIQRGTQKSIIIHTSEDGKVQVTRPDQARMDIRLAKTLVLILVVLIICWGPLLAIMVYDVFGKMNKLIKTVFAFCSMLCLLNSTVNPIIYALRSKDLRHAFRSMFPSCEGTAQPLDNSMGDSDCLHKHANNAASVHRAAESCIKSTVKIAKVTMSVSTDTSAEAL

Turning to `CCOC1(C(N)=O)CCN(c2cc(OCC(C)(C)O)nc3c(-c4ccc(Cl)cc4)c(-c4ccccc4Cl)nn23)CC1` [Compound 42, 1-[2-(2-chlorophenyl)-3-(4-chlorophenyl)-5-(2-hydroxy-2-methyl-propoxy)pyrazolo[1,5-a]pyrimidin-7-yl]-4-ethoxy-piperidine-4-carboxamide], the results for the IC50 on human CB1 receptor [1] and at human CB1 receptor [2] were 1.67 nM and 4.73 nM, respectively.
The matching figures for `CCOC1(C(N)=O)CCN(c2cc(N(C)CCO)nc3c(-c4ccc(Cl)cc4)c(-c4ccccc4Cl)nn23)CC1` [Compound 43, 1-[2-(2-chlorophenyl)-3-(4-chlorophenyl)-5-[2-hydroxyethyl(methyl)amino]pyrazolo[1,5-a]pyrimidin-7-yl]-4-ethoxy-piperidine-4-carboxamide]: 0.97 nM and 2.75 nM.
Turning to `CCOC1(C(N)=O)CCN(c2cc(N(C)CC(C)(C)O)nc3c(-c4ccc(Cl)cc4)c(-c4ccccc4Cl)nn23)CC1` [Compound 44, 1-[2-(2-chlorophenyl)-3-(4-chlorophenyl)-5-[(2-hydroxy-2-methyl-propyl)-methyl-amino]pyrazolo[1,5-a]pyrimidin-7-yl]-4-ethoxy-piperidine-4-carboxamide], the results for the 50% inhibitory concentration (IC50) on human CB1 receptor [1] and at human CB1 receptor [2] were 3.9 nM and 14.3 nM, respectively.
Consider `CC(C)(O)COc1cc(-c2ccc(C(F)(F)F)nc2)n2nc(-c3ccccc3Cl)c(-c3ccc(Cl)cc3)c2n1` [Compound 45, 1-[2-(2-chlorophenyl)-3-(4-chlorophenyl)-7-[6-(trifluoromethyl)-3-pyridyl]pyrazolo[1,5-a]pyrimidin-5-yl]oxy-2-methyl-propan-2-ol], for which the half-inhibitory concentration (IC50) was 3.97 nM on human CB1 receptor [1] and 8.61 nM at human CB1 receptor [2].
`CCNC(=O)CN(C)c1cc(N2CCC(C)(C(N)=O)CC2)n2nc(-c3ccccc3Cl)c(-c3ccc(Cl)cc3)c2n1` [Compound 46, 1-[2-(2-chlorophenyl)-3-(4-chlorophenyl)-5-[[2-(ethylamino)-2-oxo-ethyl]-methyl-amino]pyrazolo[1,5-a]pyrimidin-7-yl]-4-methyl-piperidine-4-carboxamide]: the IC50 was 3.79 nM on human CB1 receptor [1] and 29.9 nM at human CB1 receptor [2].
For `CCNC(=O)CNc1cc(N2CCC(C)(C(N)=O)CC2)n2nc(-c3ccccc3Cl)c(-c3ccc(Cl)cc3)c2n1` [Compound 47, 1-[2-(2-chlorophenyl)-3-(4-chlorophenyl)-5-[[2-(ethylamino)-2-oxo-ethyl]amino]pyrazolo[1,5-a]pyrimidin-7-yl]-4-methyl-piperidine-4-carboxamide], the IC50 on human CB1 receptor [1] was found to be 33.7 nM; at human CB1 receptor [2], 131 nM.
Consider `CCNC(=O)CN(C)c1cc(N2CCC(OCC)(C(N)=O)CC2)n2nc(-c3ccccc3Cl)c(-c3ccc(Cl)cc3)c2n1` [Compound 48, 1-[2-(2-chlorophenyl)-3-(4-chlorophenyl)-5-[[2-(ethylamino)-2-oxo-ethyl]-methyl-amino]pyrazolo[1,5-a]pyrimidin-7-yl]-4-ethoxy-piperidine-4-carboxamide], for which the half-maximal inhibitory concentration (IC50) on human CB1 receptor [1] was 3.89 nM; at human CB1 receptor [2], 19.4 nM.
On to `CC(C)(O)CNc1cc(N2CCC(C)(C(N)=O)CC2)n2nc(-c3ccccc3Cl)c(-c3ccc(Cl)cc3)c2n1` [Compound 49, 1-[2-(2-chlorophenyl)-3-(4-chlorophenyl)-5-[(2-hydroxy-2-methyl-propyl)amino]pyrazolo[1,5-a]pyrimidin-7-yl]-4-methyl-piperidine-4-carboxamide], for which the IC50 on human CB1 receptor [1] was determined as 9.13 nM; at human CB1 receptor [2], 25.4 nM.
For `COc1ccc(-c2cc(N3CCC[C@H]3CO)nc3c(-c4ccc(Cl)cc4)c(-c4ccc(C#N)cc4)nn23)cc1` [Compound 50, 4-[3-(4-chlorophenyl)-5-[(2S)-2-(hydroxymethyl)pyrrolidin-1-yl]-7-(4-methoxyphenyl)pyrazolo[1,5-a]pyrimidin-2-yl]benzonitrile] the same measures were 2.21 nM and 4.79 nM.
On to `CC(C)(O)COc1cc(N2CC(C)(C#N)C2)n2nc(-c3ccc(C#N)nc3)c(-c3ccc(Cl)cc3)c2n1` [Compound 51, 5-[3-(4-chlorophenyl)-7-(3-cyano-3-methyl-azetidin-1-yl)-5-(2-hydroxy-2-methyl-propoxy)pyrazolo[1,5-a]pyrimidin-2-yl]pyridine-2-carbonitrile], for which the values for the IC50 at human CB1 receptor [1] and at human CB1 receptor [2] were 0.95 nM and 1.73 nM, respectively.
With `COC1(C)CN(c2cc(OCC(C)(C)O)nc3c(-c4ccc(Cl)cc4)c(-c4ccc(C#N)nc4)nn23)C1` [Compound 52, 5-[3-(4-chlorophenyl)-5-(2-hydroxy-2-methyl-propoxy)-7-(3-methoxy-3-methyl-azetidin-1-yl)pyrazolo[1,5-a]pyrimidin-2-yl]pyridine-2-carbonitrile], the IC50 was determined as 1.47 nM on human CB1 receptor [1] and 2.56 nM on human CB1 receptor [2].
Consider `CC(C)(O)COc1cc(N2CCN(S(=O)(=O)C(F)(F)F)CC2)n2nc(-c3ccc(C#N)nc3)c(-c3ccc(Cl)cc3)c2n1` [Compound 53, 5-[3-(4-chlorophenyl)-5-(2-hydroxy-2-methyl-propoxy)-7-[4-(trifluoromethylsulfonyl)piperazin-1-yl]pyrazolo[1,5-a]pyrimidin-2-yl]pyridine-2-carbonitrile], for which the IC50 is 1.07 nM on human CB1 receptor [1] and 1.24 nM on human CB1 receptor [2].
For `CC(C)(O)COc1cc(N2CCC(C)(C(N)=O)CC2)n2nc(-c3ccc(C#N)nc3)c(-c3ccc(Cl)cc3)c2n1` [Compound 54, 1-[3-(4-chlorophenyl)-2-(6-cyano-3-pyridyl)-5-(2-hydroxy-2-methyl-propoxy)pyrazolo[1,5-a]pyrimidin-7-yl]-4-methyl-piperidine-4-carboxamide] the same measures were 1.02 nM and 2.43 nM.
As for `CCOC1(C(N)=O)CCN(c2cc(OCC(C)(C)O)nc3c(-c4ccc(Cl)cc4)c(-c4ccc(C#N)nc4)nn23)CC1` [Compound 55, 1-[3-(4-chlorophenyl)-2-(6-cyano-3-pyridyl)-5-(2-hydroxy-2-methyl-propoxy)pyrazolo[1,5-a]pyrimidin-7-yl]-4-ethoxy-piperidine-4-carboxamide], the IC50 at human CB1 receptor [1] is 1.25 nM; at human CB1 receptor [2], 3.22 nM.
The matching figures for `Cc1ccc(-c2cc(N3CCC[C@H]3CO)nc3c(-c4ccc(Cl)cc4)c(-c4ccccc4Cl)nn23)cn1` [Compound 56, [(2S)-1-[2-(2-chlorophenyl)-3-(4-chlorophenyl)-7-(6-methyl-3-pyridyl)pyrazolo[1,5-a]pyrimidin-5-yl]pyrrolidin-2-yl]methanol]: 2.69 nM and 5.8 nM.
The matching figures for `CC(C)OC1(C(N)=O)CCN(c2cc(OCC(C)(C)O)nc3c(-c4ccc(Cl)cc4)c(-c4ccccc4Cl)nn23)CC1` [Compound 57, 1-[2-(2-chlorophenyl)-3-(4-chlorophenyl)-5-(2-hydroxy-2-methyl-propoxy)pyrazolo[1,5-a]pyrimidin-7-yl]-4-isopropoxy-piperidine-4-carboxamide]: 1.04 nM and 2.86 nM.
For `CC(C)OC1(C(N)=O)CCN(c2cc(N3CCC[C@H]3CO)nc3c(-c4ccc(Cl)cc4)c(-c4ccccc4Cl)nn23)CC1` [Compound 58, 1-[2-(2-chlorophenyl)-3-(4-chlorophenyl)-5-[(2S)-2-(hydroxymethyl)pyrrolidin-1-yl]pyrazolo[1,5-a]pyrimidin-7-yl]-4-isopropoxy-piperidine-4-carboxamide] the same measures were 0.99 nM and 2.2 nM.
Turning to `CC(C)(O)COc1cc(N2CC(C(N)=O)C2)n2nc(-c3ccc(C#N)nc3)c(-c3ccc(Cl)cc3)c2n1` [Compound 59, 1-[3-(4-chlorophenyl)-2-(6-cyano-3-pyridyl)-5-(2-hydroxy-2-methyl-propoxy)pyrazolo [1,5-a]pyrimidin-7-yl]azetidine-3-carboxamide], the values for the IC50 on human CB1 receptor [1] and at human CB1 receptor [2] were 6.21 nM and 21.8 nM, respectively.
`CC(C)(O)COc1cc(N2CC(C)(C(N)=O)C2)n2nc(-c3ccc(C#N)nc3)c(-c3ccc(Cl)cc3)c2n1` [Compound 60, 1-[3-(4-chlorophenyl)-2-(6-cyano-3-pyridyl)-5-(2-hydroxy-2-methyl-propoxy)pyrazolo[1,5-a]pyrimidin-7-yl]-3-methyl-azetidine-3-carboxamide]: the IC50 at human CB1 receptor [1] was 1.52 nM; at human CB1 receptor [2], 5.02 nM.
`N#Cc1ccc(-c2nn3c(N4CC(C(N)=O)C4)cc(N4CCC[C@H]4CO)nc3c2-c2ccc(Cl)cc2)cn1` [Compound 61, 1-[3-(4-chlorophenyl)-2-(6-cyano-3-pyridyl)-5-[(2S)-2-(hydroxymethyl)pyrrolidin-1-yl]pyrazolo[1,5-a]pyrimidin-7-yl]azetidine-3-carboxamide]: the half-inhibitory concentration (IC50) at human CB1 receptor [1] was found to be 1.39 nM; on human CB1 receptor [2], 3.65 nM.
In the case of `CN(CC1COC(C)(C)OC1)c1cc(N2CCC(C)(C(N)=O)CC2)n2nc(-c3ccccc3Cl)c(-c3ccc(Cl)cc3)c2n1` [Compound 62, 1-[2-(2-chlorophenyl)-3-(4-chlorophenyl)-5-[(2,2-dimethyl-1,3-dioxan-5-yl)methyl-methyl-amino]pyrazolo[1,5-a]pyrimidin-7-yl]-4-methyl-piperidine-4-carboxamide], the IC50 at human CB1 receptor [1] is 7610 nM; at human CB1 receptor [2], above 30000 nM.
On to `CC(C)OC1(C(N)=O)CCN(c2cc(OCC(C)(C)O)nc3c(-c4ccc(Cl)cc4)c(-c4ccc(C#N)nc4)nn23)CC1` [Compound 63], for which the IC50 turned out to be 0.9 nM at human CB1 receptor [1] and 1.62 nM at human CB1 receptor [2].

By IC50 is commonly meant the concentration at which inhibition is half-maximal.
